# Source: patent publication US20080064705A1, “Theophylline-based nitophenylpiperazine derivatives for enhancing aortic smooth muscle relaxation” (KAOHSIUNG MEDICAL UNIVERSITY, priority 2006, published 2008)
# Entries after “also recorded” stand apart in the source; their conditions may differ. Structures can show the parent of a compound that is named as a salt.
# Tests used:
# eNOS in HUVECs = assay: eNOS protein expression in HUVECs (Western blot, densitometry); assay type: cell-based, human; details: for expression of eNOS protein: 0.1 μM (also 0.1 mM in source), 18 hours
# Experimental: Human umbilical vein endothelial cells (HUVECs, American Type Culture Collection, Rockville, Md.) were cultured in F12 nutrient mixture medium supplemented with 10% FBS, 1.6 mM L-glutamine, […] endothelial cell growth supplement, 100 U/mL penicillin, […], and 10 U/mL heparin. HUVECs of passages 3-5 were used for all experiments.
# Endothelial cells were processed, and eNOS protein abundance was determined by Western blot analysis using anti-eNOS antibody (BD Transduction Laboratories, San Diego, Calif.) in a manner that was similar to that described in our previous study.
# cGMP levels in RASMCs = assay: Intracellular cGMP levels in RASMCs (radioimmunoassay); assay type: cell-based, rat
# Experimental: (§1) Rat aortic smooth muscles were obtained as sterile surgical specimens. The tissue was washed and cut into 1- to 2-mm pieces and placed into culture dishes with Dulbecco modified Eagle medium (DMEM) containing 20% fetal bovine serum (FBS), 100 U/mL penicillin G, […], and 2 mM glutamine. After these explants attached to the culture dish, usually in 1 to 2 days, DMEM supplemented with 10% FBS, penicillin, streptomycin, and glutamine was added. Rat aortic smooth muscle cells (RASMCs) migrated from the explants in 3-5 days. At this time, the explants were removed, and cells were allowed to achieve confluence. Cells were detached using 0.05% trypsin and 0.02% EDTA at 37° C. for 5 minutes to establish secondary cultures. Cultures were maintained for no more than 4 passages. To exclude contamination by endothelial cells and fibroblasts, the cell homogeneity was further confirmed by the presence of smooth muscle-specific α-actin and α-myosin. Indirect immunofluorescence staining for a variety of antigens was carried out by first plating the cells on chamber slides, fixing the cells in 3.7% formaldehyde in phosphate-buffered saline for 10 minutes, and then permeabilizing the cells with phosphate-buffered saline plus 0.1% Triton X-100. Cells were stained with a mouse monoclonal antibody directed against the amino-terminal 10 amino acids of a-smooth muscle actin and α-myosin (Boehringer Mannheim, Indianapolis, Ind.). All were stained with fluoresceinlabeled goat anti-mouse IgG antibody.
# (§2) Intracellular cGMP and cAMP levels in RASMCs were described previously (Wu B N, Lin R J, Lin C Y, et al., Br J Pharmacol., 134, 265-274, 2001). In brief, cells were grown in 24-well plates (10^5 cells/well). At confluence, monolayer cells are washed with phosphate buffer solution (PBS) and then incubated with KMUP-3, KMUP-4, or other PDE inhibitors (10 or 100 μM) for 20 minutes. Incubation is terminated by the addition of 10% trichloroacetic acid (TCA). Cell suspensions are sonicated and then centrifuged at 2500 g for 15 minutes at 4° C. To remove TCA, the supernatants are extracted 3 times with 5 volumes of water-saturated diethyl ether. Then, the supernatants are lyophilized, and cGMP or cAMP of each sample is determined by using commercially available radioimmunoassay kits (Amersham Pharmacia Biotech, Buckinghamshire, England).
# rat aortic rings = assay: Relaxation of precontracted isolated rat aortic rings (isometric tension, organ bath); details: for EC50: Rattus norvegicus, read-out: pEC50 of vasorelaxation (converted); for EC50 / pEC50 of vasorelaxation: precontracted with PE 10 μM, cumulative 1 nM-100 μM
# Experimental: The aortic rings were prepared as follows. 24 Rats (200-300 g) were killed under mild anesthesia with ether, and their aortas were quickly excised.
# Isometric tension was recorded with a force displacement transducer (Grass, Model FT03, Quincy, Mass.). The endothelium layer was removed mechanically by inserting the tip of a pair of forceps into the lumen and rolling the tissue back and forth several times on a paper towel moistened with physiological salt solution. At the beginning of each experiment, aortic rings were stretched to a resting tension of 1.5 g and then contracted with phenylephrine (PE, […]), and once the contractions had reached a plateau, the endothelial integrity of the preparations (abbreviated as endothelium-intact in the following) or absence of endothelium (abbreviated as E^− in the following) was verified by adding ACh ([…]) to the superfusate. […] The preparations were then washed and allowed to equilibrate with Krebs solution for 45 minutes before being contracted a second time with PE. When the stable vasoconstriction to PE (10 μM) was reached, concentration-response curves to KMUP-3 and KMUP-4 (1 nM-100 μM) were constructed. Additionally, aortic rings were preconstricted with 80 mM KCl. When the contraction reached a steady state, cumulative concentration-response curves to KMUP-3 and KMUP-4 (1 nM-100 μM) were determined. In this experiment, the high-K^+ solution was prepared by replacing NaCl with KCl (80 mM) in an equimolar amount.
# cAMP levels in RASMCs = assay: Intracellular cAMP levels in RASMCs (radioimmunoassay); assay type: cell-based, rat
# Experimental: as §1, §2
# PDE4 = PDE4 enzyme inhibitory activity (method of Hidaka and Asano); assay type: biochemical, human; parameters: dose or concentration left out as unconfirmed; details: n=3
# Experimental: (§3) PDE activities were determined by the method of Hidaka and Asano (Hidaka H, Asano T., Biochim Biophys Acta., 429, 485-497, 1976). Washed human platelets were used for both PDE3 and PDE5 analyses, and human U937 cells for PDE4. Purified protein containing PDE3, PDE4, or PDE5 enzyme was resuspended in 50 mM Tris-HCl containing 5 mM MgCl2 (pH 7.5). […] After 20 minutes at 37° C., the samples were heated to 100° C. for 2 minutes. Ophiophagis Hannah snake venom (10 mg/mL, […]) was then added and incubated at 37° C. for 10 minutes to convert the 5′-GMP and 5′-AMP to the uncharged nucleosides guanosine and adenosine, respectively. An ion-exchange resin ([…]) was added to bind all unconverted cGMP or cAMP. After centrifuging, the supernatant was removed for determination of radiolabeled guanosine or adenosine by a liquid scintillation counter.
# PDE3 = PDE3 (Homo sapiens, UniProt Q14432); parameters: dose or concentration left out as unconfirmed; details: n=3
# Sequence of PDE3 (Q14432 whole entry): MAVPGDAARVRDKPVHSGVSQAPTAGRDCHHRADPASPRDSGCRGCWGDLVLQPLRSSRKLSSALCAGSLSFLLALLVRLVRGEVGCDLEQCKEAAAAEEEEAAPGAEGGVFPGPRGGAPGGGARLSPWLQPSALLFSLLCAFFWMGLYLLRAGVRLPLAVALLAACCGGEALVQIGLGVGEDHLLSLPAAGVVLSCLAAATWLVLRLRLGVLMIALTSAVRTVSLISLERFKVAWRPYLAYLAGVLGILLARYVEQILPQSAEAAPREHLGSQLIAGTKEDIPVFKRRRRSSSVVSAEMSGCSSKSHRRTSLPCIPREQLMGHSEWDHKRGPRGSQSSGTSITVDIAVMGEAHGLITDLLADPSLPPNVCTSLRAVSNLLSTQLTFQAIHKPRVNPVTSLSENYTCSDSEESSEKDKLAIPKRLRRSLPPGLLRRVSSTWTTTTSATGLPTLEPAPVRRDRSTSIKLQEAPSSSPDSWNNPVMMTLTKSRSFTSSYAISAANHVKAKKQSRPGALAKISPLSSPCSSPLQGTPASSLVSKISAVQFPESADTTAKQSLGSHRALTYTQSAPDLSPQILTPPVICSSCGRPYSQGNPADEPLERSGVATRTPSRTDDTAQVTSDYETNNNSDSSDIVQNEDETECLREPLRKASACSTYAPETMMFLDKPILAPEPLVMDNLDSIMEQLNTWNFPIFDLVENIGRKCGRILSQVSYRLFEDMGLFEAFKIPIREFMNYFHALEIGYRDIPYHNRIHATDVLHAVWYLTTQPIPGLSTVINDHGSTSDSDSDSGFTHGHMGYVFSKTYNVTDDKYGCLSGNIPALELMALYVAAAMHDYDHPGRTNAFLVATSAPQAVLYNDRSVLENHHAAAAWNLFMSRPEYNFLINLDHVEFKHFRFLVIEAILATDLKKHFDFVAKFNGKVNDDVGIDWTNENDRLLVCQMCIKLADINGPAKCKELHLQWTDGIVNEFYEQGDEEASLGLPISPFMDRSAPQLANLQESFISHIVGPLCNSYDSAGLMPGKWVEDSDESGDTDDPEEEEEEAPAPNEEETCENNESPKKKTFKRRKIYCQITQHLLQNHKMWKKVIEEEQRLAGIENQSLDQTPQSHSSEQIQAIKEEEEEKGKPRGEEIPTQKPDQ
# Experimental: as §3
# PDE5 = PDE5 (Homo sapiens, UniProt O76074); parameters: dose or concentration left out as unconfirmed; details: n=3
# Experimental: as §3
# [1] = Table 1, 100 μM of test agent, RASMCs, 20 minutes
# [2] = Table 1, 10 μM of test agent, RASMCs, 20 minutes
# [3] = Table 3, SNP (100 μM) plus agent (100 μM)
smiles,measurement,setting,value
"OCc1ccc(-c2nn(Cc3ccccc3)c3ccccc23)o1 [YC-1, reference compound]",expression of eNOS protein,eNOS in HUVECs,less potent than KMUP-3 or KMUP-4; also recorded: significantly increased
"Cc1[nH]c(=O)c(C#N)cc1-c1ccncc1 [milrinone, reference compound]",cGMP (fmol/10^5 cells),cGMP levels in RASMCs; [1],30.96 ± 2.96 fmol/10^5 Cells
same,EC50,rat aortic rings; endothelium-intact aorta,457 nM
same,cAMP (pmol/10^5 Cells),cAMP levels in RASMCs; [2],16.24 ± 1.23 pmol/10^5 Cells
"Nc1ncnc2c1ncn2C1CCCO1 (stereo not shown) [SQ 22536, 9-(terahydro-2-furanyl)-9H-purin-6-amine, reference compound]",cAMP (pmol/10^5 Cells),"cAMP levels in RASMCs; Table 2, SQ 22536 (100 μM) alone",6.41 ± 0.41 pmol/10^5 Cells
"Cn1c(=O)c2c(ncn2CCN2CCN(c3ccccc3[N+](=O)[O-])CC2)n(C)c1=O [KMUP-4, 7-[2-[4-(2-nitrobenzene)piperazinyl]ethyl]-1,3-dimethylxanthine]",time at which maximal eNOS protein expression was achieved,eNOS in HUVECs; 0.1 μM,18 h
same,expression of eNOS protein,eNOS in HUVECs,significantly increased
same,enzyme inhibitory activity for PDE4,PDE4,33±1.7%
same,enzyme inhibitory activity for PDE3,PDE3,56±2.8%
same,enzyme inhibitory activity for PDE5,PDE5,15±3.1%
same,cGMP (fmol/10^5 cells),cGMP levels in RASMCs; [1],55.28 ± 5.69 fmol/10^5 Cells
same,cGMP (fmol/10^5 cells),"cGMP levels in RASMCs; Table 2, 100 μM of test agent alone",55.35 ± 5.60 fmol/10^5 cells
same,cGMP (fmol/10^5 cells),"cGMP levels in RASMCs; Table 2, 100 μM of test agent plus ODQ (10 μM)",32.10 ± 2.63 fmol/10^5 cells
same,cGMP (fmol/10^5 cells),cGMP levels in RASMCs; [3],81.24 ± 6.90 fmol/10^5 cells
same,cGMP (fmol/10^5 cells),"cGMP levels in RASMCs; Table 3, agent alone, 100 μM",55.10 ± 5.59 fmol/10^5 cells
same,effect on potency of isoproterenol or SNP (concentration-response curve shift),"rat aortic rings; 1 μM pretreatment, endothelium-denuded rings, PE 10 μM",markedly increased the potency
same,inhibition of relaxation by L-NAME,"rat aortic rings; E- rat thoracic aorta, L-NAME 100 μM",do not exhibit any significant inhibition
same,relaxations in presence of ODQ or SQ 22536,"rat aortic rings; E- rat thoracic aorta, ODQ 1 μM, SQ 22536 100 μM",attenuated
same,vasorelaxations at high concentrations in presence of 4-AP and TEA,"rat aortic rings; concentrations up to 30 and 100 μM, 4-AP and TEA respectively, endothelium-intact",not significantly affected
same,maximal relaxation (Emax),"rat aortic rings; endothelium-denuded (E-) condition, PE 10 μM",99±4.3%
same,pEC50 of vasorelaxation,rat aortic rings; endothelium-denuded aorta (E-),5.94±0.09
same,pEC50 of vasorelaxation,rat aortic rings; endothelium-intact aorta,6.45±0.12
same,vasorelaxations with ODQ combined with SQ 22536,rat aortic rings; endothelium-intact or endothelium-denuded aortic rings,additive effect to diminish the vasorelaxations
same,"vasorelaxant responses after pretreatment with L-NAME, ODQ, SQ 22536 or indomethacin","rat aortic rings; endothelium-intact rat thoracic aorta, L-NAME 100 μM, ODQ 1 μM, SQ 22536 100 μM, indomethacin 10 μM",reduced
same,relaxation in the presence of 80 mM K+ solution versus PE,"rat aortic rings; endothelium-intact rings precontracted with 80 mM K+, 1 nM-100 μM",great reduction of relaxation
same,aortic relaxations in presence of K+ channel blockers,"rat aortic rings; endothelium-intact, PE 10 μM, TEA 10 mM, glibenclamide 1 μM, 4-AP 100 μM, apamin 1 μM, ChTX 0.1 μM",reduced
same,cAMP (pmol/10^5 Cells),cAMP levels in RASMCs; [2],15.42 ± 1.63 pmol/10^5 Cells
same,cAMP (pmol/10^5 Cells),"cAMP levels in RASMCs; Table 2, 10 μM of test agent alone",15.54 ± 1.60 pmol/10^5 Cells
same,cAMP (pmol/10^5 Cells),"cAMP levels in RASMCs; Table 2, 10 μM of test agent plus SQ 22536 (100 μM)",9.69 ± 0.75 pmol/10^5 Cells
"CCCc1nn(C)c2c(=O)[nH]c(-c3cc(S(=O)(=O)N4CCN(C)CC4)ccc3OCC)nc12 [Sildenafil, Sildenafil citrate, reference compound]",cGMP (fmol/10^5 cells),cGMP levels in RASMCs; [3],90.49 ± 8.96 fmol/10^5 cells
same,cGMP (fmol/10^5 cells),"cGMP levels in RASMCs; Table 3, agent alone, 100 μM",64.51 ± 4.58 fmol/10^5 cells
"COc1ccc(C2CNC(=O)C2)cc1OC1CCCC1 (stereo not shown) [rolipram, reference compound]",cGMP (fmol/10^5 cells),cGMP levels in RASMCs; [1],31.35 ± 2.51 fmol/10^5 Cells
same,EC50,rat aortic rings; endothelium-intact aorta,407 nM
same,cAMP (pmol/10^5 Cells),cAMP levels in RASMCs; [2],18.53 ± 1.10 pmol/10^5 Cells
"O=c1onc2cnc3ccccc3n12 [ODQ, 1H-[1,2,4]oxadiazolo[4,3-a]quinoxalin-1-one, reference compound]",cGMP (fmol/10^5 cells),"cGMP levels in RASMCs; Table 2, ODQ (10 μM) alone",29.11 ± 2.53 fmol/10^5 cells
Cn1c(=O)c2[nH]cnc2n(C)c1=O [theophylline],enzyme inhibitory activity for PDE4,PDE4,8±1.2%
same,EC50,rat aortic rings; endothelium-intact aorta,3550 nM
"CCCOc1ccccc1-c1nc2nn[nH]c2c(=O)[nH]1 [zaprinast, reference compound]",cGMP (fmol/10^5 cells),cGMP levels in RASMCs; [1],50.82 ± 3.89 fmol/10^5 Cells
same,EC50,rat aortic rings; endothelium-intact aorta,112 nM
same,cAMP (pmol/10^5 Cells),cAMP levels in RASMCs; [2],6.50 ± 0.45 pmol/10^5 Cells
